Results: patent publication US12622975B2, “Peptide-conjugated prodrugs” (priority 2019, dated 2026)
≈ marks a conversion by molar mass, not a printed value. Entries after “also recorded” stand apart in the source; their conditions may differ.

Tests used:
[1] = tested on: HEK293 cells; test: Cell viability assay (MTT), HEK293; conditions: 20 μM, 24 hours
[2] = tested on: HepG2 cells; test: Cell viability assay (MTT), HepG2; type: cell-based; conditions: 20 μM, 24 hours
[3] = tested on: YdgR transporter knockout mutants of E. coli; test: Antibacterial activity against YdgR transporter knockout mutant; type: cell-based; conditions: YdgR mutant versus wild-type E. coli
Procedure: (§1) Bacteria culture and inhibitory activity assay: Single esterase (BioH, YjfP, FrsA, YbfF, YfbB, YqiA, YeiG, or and YpfH) deletion mutants were purchased from Dharmacon Horizon Discovery (Cambridge, United Kingdom). […] Compounds were added at different concentrations.
To verify whether bacterial oligopeptide transporters are involved in the uptake of CLsuGG, the activities of CLsuGG against the YdgR mutant and wild-type E. coli was compared (FIG. 4A). The deletion of YdgR, an inner membrane (IM) proton-coupled transporter for uptaking di- and tripeptides (Prabhala et al., “The Prototypical Proton-Coupled Oligopeptide Transporter YdgR from Escherichia coli Facilitates Chloramphenicol Uptake into Bacterial Cells,” J. Biol. Chem. 293(3):1007-1017 (2018), which is hereby incorporated by reference in its entirety), indeed rescues the bacteria, i.e., increasing cell viability for about 10%.

[4] = Water solubility; type: physicochemical
[5] = tested on: wild type E. coli strain (K-12); test: Bacteria culture and inhibitory activity assay (MIC); type: cell-based; conditions: for Effect of addition of exogenous PLE on inhibitory efficacy: porcine liver esterase 1 U/mL
Procedure: as §1
Compounds were added at different concentrations.

[6] = tested on: esterase (bioH, yjfP, frsA, ybfF, yfbB, ypfH, yeiG, or yqiA) deletion mutants of E. coli; type: cell-based; conditions: for reduction of antibacterial activity by deletion of the cytoplasmic esterase: single esterase gene deletion
Procedure: Bacteria culture and inhibitory activity assay: Single esterase (BioH, YjfP, FrsA, YbfF, YfbB, YqiA, YeiG, or and YpfH) deletion mutants were purchased from Dharmacon Horizon Discovery (Cambridge, United Kingdom). The K12 wild-type E. coli strain (MG1655) was cultured in autoclaved LB medium (25 g/L LB broth/water) in a shaker-incubator overnight to stationary growth phase, and then sub-cultured in the same medium after dilution to OD600 of 0.05. Compounds were added at different concentrations. The mixture of bacteria and compounds were placed (200 μL/well) into 96-well clear flat bottom plates. In all plates, the OD600 was measured before and after 16 hour incubation at 37° C.
(§2) Bacteria culture and inhibitory activity assay: Single esterase (bioH, frsA, ybfF, yfbB, yqiA, yeiG, or ypfH) deletion mutants, bacterial transporter (ydgR, fepA and ompF) deletion mutants and the efflux pump (acrA) deletion mutant were all purchased from Dharmacon Horizon Discovery (Cambridge, United Kingdom). The K12 wild-type E. coli strain (MG1655) was cultured in autoclaved LB medium (25 g/L LB broth/water) in a shaker-incubator overnight to stationary growth phase, and then sub-cultured in the same medium after dilution to OD600 of 0.05. Compounds were added at different concentrations. The mixture of bacteria and compounds were placed (200 μL/well) into 96-well clear flat bottom plates. In all plates, the OD600 was measured before and after a 16 hour incubation at 37° C.

[7] = tested on: carboxylesterase (CES); test: Hydrolysis assay with exogenous carboxylesterase; type: in vitro ADME, porcine; conditions: CES 0.1 U/mL
Text: Experimental materials and instruments. All the solvents and chemical reagents were used directly as received from the commercial sources without further purification unless otherwise stated. Carboxylesterase (CES) from porcine liver was purchased from Sigma-Aldrich (lyophilized powder, >15 units/mg solid; Unit definition: One unit will hydrolyze 1.0 μmole of ethyl butyrate to butyric acid and ethanol per min at pH 8.0 at 25). CLsuGG, CLsuG, CLsuGGG were purified with Agilent 1100 Series Liquid Chromatography system, equipped with an XTerra C18 RP column and Variable Wavelength detector.
Hydrolysis assay: Wild-type E. coli strains (K12) were harvested by centrifugation and the cell pellets were lysed using a sonic device. After centrifugation, the supernatant was collected and the proteinase inhibitor was added in the E. coli lysate. The concentration of E. coli lysate was normalized by the fluorescence intensity of 5-carboxyfluorescein diacetate (CFDA). […] Then the fluorescence was tested to draw a fluorescence-concentration dependent curve for figuring out the concentration of E. coli lysates. Solutions of CLsuGG (200 μM) were prepared in pH 7.4 PBS buffer. […] At different time points, the solution was taken out, extracted with an equal volume of butanol, concentrated to dryness, and resuspended with butanol for HPLC analysis. HPLC was performed with Agilent 1100 Series Liquid Chromatograph equipped with an XTerra C18 reverse phase column and Variable Wavelength Detector. The hydrolyzed mixture resuspended in 1 mL of butanol was injected to HPLC mobile phase (0.1% trifluoroacetic acid, the starting ratio: 10% acetonitrile and 90% water). The system was run at a flow rate of 10 mL/min.

[8] = tested on: HS-5 cells; test: Cell viability assay (MTT), HS-5; type: cell-based, human; conditions: 24 hours
[9] = tested on: double esterase (BioH and YjfP) deletion mutant of E. coli; test: Antibacterial activity against double esterase deletion mutant; type: cell-based
Procedure: as §1
To examine the roles of different intrabacterial esterases on the hydrolysis of CLsuGG, the activities of CLsuGG against eight E. coli mutants that have one of bacterial esterase genes (i.e., BioH, YjfP, FrsA, YbfF, YeiG, YfbB, YpfH or YqiA) deleted was measured. […] To confirm the role of intrabacterial esterases, a double mutant E. coli was generated, with the deletion of BioH and YjfP genes (FIGS. 5C-5D). […] These studies confirm that, after CLsuGG enters E. coli, various esterases in bacterial cytoplasm rapidly convert CLsuGG to the active antibiotic agent (i.e., CL).

[10] = tested on: E. coli (K-12) lysate; test: Hydrolysis assay with E. coli lysate; type: in vitro ADME; conditions: compound 200 μM; for apparent first-order rate constant of hydrolysis: E. coli lysate 0.1 U/mL, pH 7.4 PBS, 37° C.
Procedure: (§3) Hydrolysis assay: Wild-type E. coli strains (K12) were harvested by centrifugation and the cell pellets were lysed using a sonic device. After centrifugation, the supernatant was collected and the proteinase inhibitor was added in the E. coli lysate. The concentration of E. coli lysate was normalized by the fluorescence intensity of 5-carboxyfluorescein diacetate (CFDA). Briefly, different concentrations of CES (4 U/mL, 2 U/mL, 1 U/mL, 0.5 U/mL, 0.25 U/mL, 0.125 U/mL, 0.0625 U/mL, 0.03125 U/mL, 0.015625 U/mL and 0 U/mL) and different amount of E. coli lysates were prepared in PBS buffer. Followed by, 25 μM of CFDA was added in and incubated at room temperature for 1 hour. Then the fluorescence was tested to draw a fluorescence-concentration dependent curve for figuring out the concentration of E. coli lysates. Solutions of CLsuGG (200 μM) were prepared in pH 7.4 PBS buffer. CES and E. coli lysate (0.1 U/mL) were added and incubated with above solutions at 37° C. for 24 hours. At different time points, the solution was taken out, extracted with an equal volume of butanol, concentrated to dryness, and resuspended with butanol for HPLC analysis. HPLC was performed with Agilent 1100 Series Liquid Chromatograph equipped with an XTerra C18 reverse phase column and Variable Wavelength Detector. The hydrolyzed mixture resuspended in 1 mL of butanol was injected to HPLC mobile phase (0.1% trifluoroacetic acid, the starting ratio: 10% acetonitrile and 90% water). The system was run at a flow rate of 10 mL/min.
as §3, with “analysis.” for “analysis. HPLC was performed with Agilent 1100 Series Liquid Chromatograph equipped with an XTerra C18 reverse phase column and Variable Wavelength Detector. The hydrolyzed mixture resuspended in 1 mL of butanol was injected to HPLC mobile phase (0.1% trifluoroacetic acid, the starting ratio: 10% acetonitrile and 90% water). The system was run at a flow rate of 10 mL/min.”

[11] = tested on: ydgR, fepA, ompF transporter deletion mutants of E. coli; conditions: mutants versus wild-type E. coli
Procedure: as §2
(§4) Several representative peptides conjugating CLsu (e.g., 1c, 1d, 2b and 2c) were chosen to study the effects of conjugated peptides on the uptake of the prodrugs.

[12] = tested on: acrA efflux pump deletion mutant of E. coli; conditions: acrA mutant versus wild-type E. coli
Procedure: as §2, §4

[13] = Stability in human serum (LC-MS); type: in vitro ADME; conditions: human serum, 200 μM, 37° C.
[14] = tested on: E. coli K-12; conditions: E. coli K-12, literature values; cited from earlier work

Row | SMILES | MIC (μM) ([5]; wild type E. coli (K-12)) [µM] | apparent first-order rate constant of hydrolysis [10] [h⁻¹] | effect of deletion of ydgR, fepA, or ompF on treated bacteria [11] | reduction of the viabilities of the acrA deletion mutant treated by the conjugates [12] [%] | Compounds remaining (%) 0 h [13] [%] | Compounds remaining (%) 2 h [13] [%] | Compounds remaining (%) 24 h [13] [%] | Effect of addition of exogenous PLE on inhibitory efficacy [5] | reduction of antibacterial activity by deletion of the cytoplasmic esterase [6] | other results
1 | O=C(O)CNC(=O)CNC(=O)CCC(=O)OCC(NC(=O)C(Cl)Cl)C(O)c1ccc([N+](=O)[O-])cc1 (centres unmarked) [CLsuGG] | 20 (≈ 10.7 µg/mL) | -1.868 |  |  |  |  |  |  |  | cytotoxicity / cell viability of HEK293 cells [1]: hardly altered the cytotoxicity of CL; cytotoxicity / cell viability of HepG2 cells [2]: hardly altered the cytotoxicity of CL; increase of cell viability by deletion of YdgR [3]: about 10%; water solubility [4]: soluble; Effect of addition of CES on the MIC value ([5]; exogenous CES): hardly affected; MIC (μg/mL) ([5]; wild type E. coli (K-12)): 10.7 µg/mL (≈ 19.9 µM); reduction of antibacterial activity by single esterase gene deletion [6]: slightly; time to complete hydrolysis [7]: more than 12 hours; conversion ([7]; after 2 hours): around 70%; apparent first-order rate constant of hydrolysis ([7]; compound 200 μM): -0.443 h⁻¹; cytotoxicity / cell viability of HS-5 cells ([8]; 20 μM): largely innocuous; also recorded: reduced toxicity; antibacterial activity relative to the activity against wild type E. coli [9]: 50%; time to complete hydrolysis ([10]; intrabacterial esterases 0.1 U/mL): ≤ 2 h
2 | NCCCCC(NC(=O)C(CCCCN)NC(=O)CCC(=O)OCC(NC(=O)C(Cl)Cl)C(O)c1ccc([N+](=O)[O-])cc1)C(=O)O (centres unmarked) [Compound 2c] | 200 (≈ 136 µg/mL) | 0.310 | hardly rescues the bacteria | 50 | 100 | 49.2 | 0 | hardly changes | about 20% | 
3 | NCCCCC(NC(=O)C(CCCCN)NC(=O)CCC(=O)OCC(NC(=O)C(Cl)Cl)C(O)c1ccc([N+](=O)[O-])cc1)C(=O)O (centres unmarked) [Compound 2b] | 200 (≈ 136 µg/mL) | 0.317 | hardly rescues the bacteria | 20 | 100 | 52.9 | 0 | hardly changes | about 20% | 
4 | COc1cc(Cc2cnc(N)nc2N)cc(OC)c1OC [trimethoprim] |  |  |  |  |  |  |  |  |  | cytotoxicity of control compounds against HS-5 cells ([8]; around MIC values (0.5 μM)): relatively low cytotoxicity; MIC [14]: 1 µg/mL (≈ 3.44 µM)
5 | O=C(CCC(=O)OCC(NC(=O)C(Cl)Cl)C(O)c1ccc([N+](=O)[O-])cc1)NCC(=O)NC(CO)C(=O)O (centres unmarked) [Compound 1c] | 20 (≈ 11.3 µg/mL) | 3.763 | hardly rescues the bacteria | 30 | 100 | 0 | 0 | hardly changes | about 20% | 
6 | O=C(O)CNC(=O)C(CO)NC(=O)CCC(=O)OCC(NC(=O)C(Cl)Cl)C(O)c1ccc([N+](=O)[O-])cc1 (centres unmarked) [Compound 1d] | 40 (≈ 22.7 µg/mL) | 1.267 | hardly rescues the bacteria | 40 | 100 | 16.7 | 0 | hardly changes | ~10% | 
